Literature values in US8883830B2, “Topical therapy for the treatment of migraines, muscle sprains, muscle spasms, spasticity and related conditions” (Afgin Pharma LLC., priority 2003, dated 2014).

Columns and labels:
[1] = relative to ergotamine

| SMILES | emetic activity compared with ergotamine [1] | oral bioavailability [%] |
| --- | --- | --- |
| CN1C[C@H](C(=O)N[C@]2(C)O[C@@]3(O)[C@@H]4CCCN4C(=O)[C@H](Cc4ccccc4)N3C2=O)C[C@@H]2c3cccc4[nH]cc(c34)C[C@H]21 [Dihydroergotamine] | about 12 times less active |  |
| CNS(=O)(=O)CCc1ccc2[nH]cc(C3CCN(C)CC3)c2c1 [naratriptan] |  | ~70 |
